How the values were obtained:
Experiment in all cases: relative viability (nuclei count vs DMSO), 5 days (fraction); higher = more cells survive
NCI-H727 = tested on: NCI-H727
Procedure, shortened: (§1)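 The day after seeding in 1536-well plates, lung cancer cell lines were treated by pin tool with a single drug, or with a fixed anchor-drug dose together with five library-drug doses (not always all listed) in √10 steps. After 5 days, a combined fix-and-stain solution (final 0.05% Triton X-100, 1% formaldehyde, 1 ug/ml Hoechst) was added. Nuclei counted on 4× images gave relative viability as treated counts over vehicle counts, reported as the median of duplicate plates.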

NCI-H838 = tested on: NCI-H838
Procedure, shortened: as §1

LK-2 = tested on: LK-2
Procedure, shortened: as §1

NCI-H1355 = tested on: NCI-H1355
Procedure, shortened: as §1

SW 1573 = tested on: SW 1573
Procedure, shortened: as §1

UMC-11 = tested on: UMC-11
Procedure, shortened: as §1

NCI-H1734 = tested on: NCI-H1734
Procedure, shortened: as §1

NCI-H2228 = tested on: NCI-H2228
Procedure, shortened: as §1

NCI-H520 = tested on: NCI-H520
Procedure, shortened: as §1

NCI-H2347 = tested on: NCI-H2347
Procedure, shortened: as §1

201T = tested on: 201T
Procedure, shortened: as §1

NCI-H2009 = tested on: NCI-H2009
Procedure, shortened: as §1

LOU-NH91 = tested on: LOU-NH91
Procedure, shortened: as §1

HCC-44 = tested on: HCC-44
Procedure, shortened: as §1

NCI-H1650 = tested on: NCI-H1650
Procedure, shortened: as §1

NCI-H1755 = tested on: NCI-H1755
Procedure, shortened: as §1

NCI-H358 = tested on: NCI-H358
Procedure, shortened: as §1

HCC-366 = tested on: HCC-366
Procedure, shortened: as §1

HCC-78 = tested on: HCC-78
Procedure, shortened: as §1

ABC-1 = tested on: ABC-1
Procedure, shortened: as §1

NCI-H2405 = tested on: NCI-H2405
Procedure, shortened: as §1

BEN = tested on: BEN
Procedure, shortened: as §1

NCI-H1666 = tested on: NCI-H1666
Procedure, shortened: as §1

Structure (SMILES): O=C(O)CCCCC(CCSCc1ccccc1)SCc1ccccc1 (stereo not given) [CPI-613] + CC(=O)c1c(C)c2cnc(Nc3ccc(N4CCNCC4)cn3)nc2n(C2CCCC2)c1=O [Palbociclib] (partner 0.5 µM)
- relative viability (NCI-H727; first compound 5 µM): 0.673
- relative viability (NCI-H727; first compound 15.81 µM): 0.614
- relative viability (NCI-H727; first compound 50 µM): 0.566
- relative viability (NCI-H727; first compound 158.11 µM): 0.655
- relative viability (NCI-H727; first compound 500 µM): 0.634
- relative viability (NCI-H838; first compound 5 µM): 0.21
- relative viability (NCI-H838; first compound 15.81 µM): 0.189
- relative viability (NCI-H838; first compound 50 µM): 0.216
- relative viability (NCI-H838; first compound 158.11 µM): 0.139
- relative viability (NCI-H838; first compound 500 µM): 0.0859
- relative viability (LK-2; first compound 5 µM): 0.766
- relative viability (LK-2; first compound 15.81 µM): 0.684
- relative viability (LK-2; first compound 50 µM): 0.726
- relative viability (LK-2; first compound 158.11 µM): 0.532
- relative viability (LK-2; first compound 500 µM): 0.547
- relative viability (NCI-H1355; first compound 5 µM): 0.429
- relative viability (NCI-H1355; first compound 15.81 µM): 0.408
- relative viability (NCI-H1355; first compound 50 µM): 0.424
- relative viability (NCI-H1355; first compound 158.11 µM): 0.407
- relative viability (NCI-H1355; first compound 500 µM): 0.105
- relative viability (SW 1573; first compound 5 µM): 0.336
- relative viability (SW 1573; first compound 15.81 µM): 0.579
- relative viability (SW 1573; first compound 50 µM): 0.384
- relative viability (SW 1573; first compound 158.11 µM): 0.0841
- relative viability (SW 1573; first compound 500 µM): 0.056
- relative viability (UMC-11; first compound 5 µM): 0.346
- relative viability (UMC-11; first compound 15.81 µM): 0.354
- relative viability (UMC-11; first compound 50 µM): 0.323
- relative viability (UMC-11; first compound 158.11 µM): 0.23
- relative viability (UMC-11; first compound 500 µM): 0.216
- relative viability (NCI-H1734; first compound 5 µM): 0.314
- relative viability (NCI-H1734; first compound 15.81 µM): 0.274
- relative viability (NCI-H1734; first compound 50 µM): 0.335
- relative viability (NCI-H1734; first compound 158.11 µM): 0.199
- relative viability (NCI-H1734; first compound 500 µM): 0.144
- relative viability (NCI-H2228; first compound 5 µM): 0.693
- relative viability (NCI-H2228; first compound 15.81 µM): 0.622
- relative viability (NCI-H2228; first compound 50 µM): 0.679
- relative viability (NCI-H2228; first compound 158.11 µM): 0.45
- relative viability (NCI-H2228; first compound 500 µM): 0.0679
- relative viability (NCI-H520; first compound 5 µM): 0.225
- relative viability (NCI-H520; first compound 15.81 µM): 0.2
- relative viability (NCI-H520; first compound 50 µM): 0.169
- relative viability (NCI-H520; first compound 158.11 µM): 0.119
- relative viability (NCI-H520; first compound 500 µM): 0.117
- relative viability (NCI-H2347; first compound 5 µM): 0.434
- relative viability (NCI-H2347; first compound 15.81 µM): 0.379
- relative viability (NCI-H2347; first compound 50 µM): 0.404
- relative viability (NCI-H2347; first compound 158.11 µM): 0.392
- relative viability (NCI-H2347; first compound 500 µM): 0.22
- relative viability (201T; first compound 5 µM): 0.341
- relative viability (201T; first compound 15.81 µM): 0.34
- relative viability (201T; first compound 50 µM): 0.353
- relative viability (201T; first compound 158.11 µM): 0.185
- relative viability (201T; first compound 500 µM): 0.204
- relative viability (NCI-H2009; first compound 5 µM): 0.229
- relative viability (NCI-H2009; first compound 15.81 µM): 0.207
- relative viability (NCI-H2009; first compound 50 µM): 0.221
- relative viability (NCI-H2009; first compound 158.11 µM): 0.0593
- relative viability (NCI-H2009; first compound 500 µM): 0.0128
- relative viability (LOU-NH91; first compound 5 µM): 0.506
- relative viability (LOU-NH91; first compound 15.81 µM): 0.548
- relative viability (LOU-NH91; first compound 50 µM): 0.522
- relative viability (LOU-NH91; first compound 158.11 µM): 0.402
- relative viability (LOU-NH91; first compound 500 µM): 0.435
- relative viability (HCC-44; first compound 5 µM): 0.959
- relative viability (HCC-44; first compound 15.81 µM): 0.954
- relative viability (HCC-44; first compound 50 µM): 1.04
- relative viability (HCC-44; first compound 158.11 µM): 0.6
- relative viability (HCC-44; first compound 500 µM): 0.606
- relative viability (NCI-H1650; first compound 5 µM): 0.326
- relative viability (NCI-H1650; first compound 15.81 µM): 0.276
- relative viability (NCI-H1650; first compound 50 µM): 0.317
- relative viability (NCI-H1650; first compound 158.11 µM): 0.0807
- relative viability (NCI-H1650; first compound 500 µM): 0.0173
- relative viability (NCI-H1755; first compound 5 µM): 0.513
- relative viability (NCI-H1755; first compound 15.81 µM): 0.432
- relative viability (NCI-H1755; first compound 50 µM): 0.454
- relative viability (NCI-H1755; first compound 158.11 µM): 0.448
- relative viability (NCI-H1755; first compound 500 µM): 0.393
- relative viability (NCI-H358; first compound 5 µM): 0.114
- relative viability (NCI-H358; first compound 15.81 µM): 0.134
- relative viability (NCI-H358; first compound 50 µM): 0.154
- relative viability (NCI-H358; first compound 158.11 µM): 0.0757
- relative viability (NCI-H358; first compound 500 µM): 0.0449
- relative viability (HCC-366; first compound 5 µM): 0.354
- relative viability (HCC-366; first compound 15.81 µM): 0.322
- relative viability (HCC-366; first compound 50 µM): 0.336
- relative viability (HCC-366; first compound 158.11 µM): 0.0258
- relative viability (HCC-366; first compound 500 µM): 0.006
- relative viability (HCC-78; first compound 5 µM): 0.462
- relative viability (HCC-78; first compound 15.81 µM): 0.527
- relative viability (HCC-78; first compound 50 µM): 0.473
- relative viability (HCC-78; first compound 158.11 µM): 0.447
- relative viability (HCC-78; first compound 500 µM): 0.427
- relative viability (ABC-1; first compound 5 µM): 0.603
- relative viability (ABC-1; first compound 15.81 µM): 0.669
- relative viability (ABC-1; first compound 50 µM): 0.639
- relative viability (ABC-1; first compound 158.11 µM): 0.415
- relative viability (ABC-1; first compound 500 µM): 0.4
- relative viability (NCI-H2405; first compound 5 µM): 0.558
- relative viability (NCI-H2405; first compound 15.81 µM): 0.499
- relative viability (NCI-H2405; first compound 50 µM): 0.453
- relative viability (NCI-H2405; first compound 158.11 µM): 0.167
- relative viability (NCI-H2405; first compound 500 µM): 0.316
- relative viability (BEN; first compound 5 µM): 0.457
- relative viability (BEN; first compound 15.81 µM): 0.506
- relative viability (BEN; first compound 50 µM): 0.487
- relative viability (BEN; first compound 158.11 µM): 0.483
- relative viability (BEN; first compound 500 µM): 0.42
- relative viability (NCI-H1666; first compound 5 µM): 0.68
- relative viability (NCI-H1666; first compound 15.81 µM): 0.577
- relative viability (NCI-H1666; first compound 50 µM): 0.574
- relative viability (NCI-H1666; first compound 158.11 µM): 0.469
- relative viability (NCI-H1666; first compound 500 µM): 0.425

— the supplement of paper PMC10307832
